The test system of this experiment is live HeLa cells. Description: Live-cell SRS imaging of organelle-targeted polyynes and co-localization with fluorescent organelle markers. Format: cell-based. How it is done: FIG. 9 is live-cell SRS imaging of organelle-targeted polyynes and co-localization with fluorescent organelle markers. […] High co-localizations are also observed between organelle-targeted polyynes with commercial fluorescent markers;
HeLa cells are cultured on a glass coverslip in a 4-well plate for 24 h, and […] Carbow2141 Mito is added in the media for 1 h at 37° C. Cells are washed with PBS for three times before imaging. For co-localization, 100 nM MitoTracker Deep Red is used to stain mitochondria for 1 h.
Cells were cultured on a glass coverslip in a 4-well plate for 24 h, and 4 μM Carbow2141 Lyso is added to cells for 30 min at 37° C. Cells are washed with PBS for three times before imaging. For co-localization, 100 nM LysoTracker Red (Invitrogen, L7528) is used to stain lysosome for 30 min.
Cell are incubated with 3 μM Carbow2141 PM in the culture media for 20 min at 37° C. and are washed with PBS for three times before imaging. For co-localization, 0.5 μg/mL CellMask Deep Red (Invitrogen, C10046) is used to stain cell membrane for 5 min.
Cells were cultured on a glass coverslip in a 4-well plate for 24 h and incubated with 10 μM Carbow2226 ER for 2 h at 37° C. Cells were washed with PBS for three times before imaging. For colocalization, 1 μM ERTracker Green (Invitrogen, E34251) was used to stain endoplasmic reticulum for 2 h. […]

`O=C(NCCC[P+](c1ccccc1)(c1ccccc1)c1ccccc1)OCc1ccc(C#CC#CC#CC#Cc2ccccc2)cc1` [4-yne Mito]: the “organelle localization / co-localization with fluorescent markers” value is “specific localization to mitochondria”.

For the origin of these results see US12065692B2, “Optical super-multiplexing by polyynes” (The Trustees of Columbia University in the City of New York, priority 2017, dated 2024).
